These results are taken from publication PMC5352738, “Characterization of three pyranose dehydrogenase isoforms from the litter-decomposing basidiomycete Leucoagaricus meleagris (syn. Agaricus meleagris)” (Applied Microbiology and Biotechnology, 2016).

What all share (format): biochemical
The target in experiment [1] is T1, AmPDH3 (Macropsalliota meleagris, UniProt Q0R4L2).
T1 construct: gene pdh3; full-length pdh3 (600 aa precursor) in pPICZB-His6, His6-tag kept, secreted from Pichia pastoris X33; strongly N-glycosylated, ~65 kDa deglycosylated; standard yellow form with covalent FAD
Briefly: steady-state kinetics, absorbance at […] nm. To be noted: electron acceptor; 25 mM D-glucose, 100 mM Na borate pH 8.5, 30 °C; read-out: AmPDH3 / K m.

The target of experiment [2] is T2, AmPDH2 (Macropsalliota meleagris, UniProt Q3L243).
T2 construct: gene pdh2; full-length pdh2 (600 aa precursor) in pPICZB-His6, His6-tag kept, secreted from Pichia pastoris X33; N-glycosylated, ~65 kDa deglycosylated; covalent FAD
Kind of experiment: steady-state kinetics, absorbance at […] nm. Particulars: electron acceptor; 25 mM D-glucose, 100 mM Na borate pH 8.5, 30 °C; read-out: AmPDH2 / K m.

The target of experiment [3] is T3, AmPDH1 (Macropsalliota meleagris, UniProt Q3L245).
T3 construct: gene pdh1; full-length pdh1 (602 aa precursor) in pPICZB-His6, His6-tag kept, secreted from Pichia pastoris X33; N-glycosylated monomer, ~65 kDa deglycosylated; covalent FAD
Kind of experiment: steady-state kinetics, absorbance at […] nm. To be noted: electron acceptor; 25 mM D-glucose, 100 mM Na borate pH 8.5, 30 °C; read-out: AmPDH1 / K m.

Experiment [4] has as its target T3, AmPDH1. Kind of experiment: steady-state kinetics, absorbance at […] nm. Particulars: read-out: AmPDH1 / K m.
Experiment [5] concerns the target T3, AmPDH1. Kind of experiment: steady-state ferrocenium assay, […] nm. Particulars: electron donor; 0.2 mM ferrocenium, 50 mM Na phosphate pH 7.5, 30 °C; read-out: AmPDH1 / K m.

T3 sequence (Q3L245 26-602): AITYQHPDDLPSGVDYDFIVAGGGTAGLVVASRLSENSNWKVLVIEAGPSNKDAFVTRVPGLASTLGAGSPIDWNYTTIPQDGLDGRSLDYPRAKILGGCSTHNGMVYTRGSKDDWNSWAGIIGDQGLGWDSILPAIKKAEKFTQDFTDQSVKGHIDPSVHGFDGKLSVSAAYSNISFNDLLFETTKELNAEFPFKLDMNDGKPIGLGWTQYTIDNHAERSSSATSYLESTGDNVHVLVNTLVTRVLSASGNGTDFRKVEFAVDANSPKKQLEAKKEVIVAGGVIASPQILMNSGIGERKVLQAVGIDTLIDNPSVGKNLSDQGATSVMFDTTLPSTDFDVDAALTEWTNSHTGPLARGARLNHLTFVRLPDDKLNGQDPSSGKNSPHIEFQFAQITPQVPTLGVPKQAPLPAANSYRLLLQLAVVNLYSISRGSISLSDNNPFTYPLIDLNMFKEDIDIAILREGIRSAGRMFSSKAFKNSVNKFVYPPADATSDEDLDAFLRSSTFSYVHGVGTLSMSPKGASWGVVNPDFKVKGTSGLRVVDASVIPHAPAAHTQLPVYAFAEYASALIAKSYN
T1 sequence (Q0R4L2 26-600): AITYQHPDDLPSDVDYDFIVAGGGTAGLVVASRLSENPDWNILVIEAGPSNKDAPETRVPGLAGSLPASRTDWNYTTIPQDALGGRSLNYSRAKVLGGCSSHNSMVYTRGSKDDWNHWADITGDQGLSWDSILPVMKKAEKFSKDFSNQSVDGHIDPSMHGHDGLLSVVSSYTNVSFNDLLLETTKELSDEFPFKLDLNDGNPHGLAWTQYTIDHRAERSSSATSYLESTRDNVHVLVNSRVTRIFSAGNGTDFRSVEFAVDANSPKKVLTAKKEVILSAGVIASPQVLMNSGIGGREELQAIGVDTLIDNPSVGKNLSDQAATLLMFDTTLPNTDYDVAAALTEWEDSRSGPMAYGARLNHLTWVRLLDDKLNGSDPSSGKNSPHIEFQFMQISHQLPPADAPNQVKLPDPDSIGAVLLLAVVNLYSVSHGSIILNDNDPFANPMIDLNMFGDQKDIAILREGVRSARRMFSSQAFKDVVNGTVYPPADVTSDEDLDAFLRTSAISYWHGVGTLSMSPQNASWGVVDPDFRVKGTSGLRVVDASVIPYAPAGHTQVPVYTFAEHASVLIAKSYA
T2 sequence (Q3L243 26-600): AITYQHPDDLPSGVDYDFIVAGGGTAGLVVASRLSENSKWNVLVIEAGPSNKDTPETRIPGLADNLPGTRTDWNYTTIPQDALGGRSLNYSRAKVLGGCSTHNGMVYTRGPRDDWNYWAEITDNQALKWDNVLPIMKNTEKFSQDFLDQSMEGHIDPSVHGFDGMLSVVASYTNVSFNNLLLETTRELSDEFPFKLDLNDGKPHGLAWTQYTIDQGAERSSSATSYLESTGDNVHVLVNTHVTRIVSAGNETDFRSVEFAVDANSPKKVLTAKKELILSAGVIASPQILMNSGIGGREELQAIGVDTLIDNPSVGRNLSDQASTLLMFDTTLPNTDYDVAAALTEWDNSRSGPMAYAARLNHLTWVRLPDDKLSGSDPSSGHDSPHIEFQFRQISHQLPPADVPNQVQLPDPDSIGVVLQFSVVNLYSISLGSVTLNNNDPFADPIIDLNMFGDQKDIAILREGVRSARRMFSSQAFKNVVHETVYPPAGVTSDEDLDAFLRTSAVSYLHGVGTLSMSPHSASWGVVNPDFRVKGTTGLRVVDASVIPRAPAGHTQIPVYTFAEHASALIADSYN

For the compound `C1=CCC=C1.C1=CCC=C1.[Fe+3]` [ferrocenium cation], the Km came to 10.3 ± 0.9 µM in experiment [1], 20.1 ± 2.3 µM in experiment [2] and 161 ± 38 µM in experiment [3].

Take `O=C1C=CC(=O)C=C1` [1,4-benzoquinone]: the Km in experiment [4] was 1380 ± 280 µM.

In the case of `OC[C@H]1OC(O)[C@H](O)[C@@H](O)[C@@H]1O` (stereo partly drawn) [D-glucose], in experiment [5], the Km was determined as 820 ± 10 µM.
